# Experimental data published in the supplement of paper PMC10307832.
# Columns and labels:
# Test in all cases: relative viability (nuclei count vs DMSO), 5 days (fraction); higher = more cells survive
# [1] = compound: CC1=C(C(=NN1)C)CC2=C(C3=C(S2)N(C(=O)N(C3=O)C)CC(C)C)C(=O)N4C[C@@H](CO4)O
# Summary of the method: (§1)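 Acceptance criteria were a control CV below 25% and at least one doubling per plate. Lung cancer cell lines in 1536-well plates got five library-drug doses (not always all listed) √10 apart by pinning and were left 5 days with no medium change. Viability divides treated-well nuclei by vehicle-well nuclei and is the median across plates. Nuclei were counted by MetaXpress from 4× Hoechst images.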
# IDH-C35 = compound: Cc1ccccc1C(C(=O)NC1CCCCC1)N(C(=O)Cn1ccnc1C)c1cccc(F)c1 [IDH-C35]
# Summary of the method: as §1
# [2] = compound: CC1=C(C(=NN1)C)CC2=C(C3=C(S2)N(C(=O)N(C3=O)C)CC(C)C)C(=O)N4C[C@@H](CO4)O + COc1cc2c(Oc3ccc(NC(=O)C4(C(=O)Nc5ccc(F)cc5)CC4)cc3F)ccnc2cc1OCCCN1CCOCC1 [Foretinib] (partner 0.25 µM)
# Summary of the method: (§2)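 After 5 days of treatment, lung cancer cells in 1536-well plates were fixed and stained in a single step (final 0.05% Triton X-100, 1% formaldehyde, 1 ug/ml Hoechst) and their nuclei counted on 4× images. Treatment had been applied by pin tool the day after seeding as one drug alone or as a fixed anchor-drug dose with five library-drug doses (not always all listed) in √10 steps. Relative viability is the nuclei count of treated wells divided by that of vehicle wells, and values are medians of duplicate plates.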
# [3] = compound: CC1=C(C(=NN1)C)CC2=C(C3=C(S2)N(C(=O)N(C3=O)C)CC(C)C)C(=O)N4C[C@@H](CO4)O + CS(=O)(=O)CCNCc1ccc(-c2ccc3ncnc(Nc4ccc(OCc5cccc(F)c5)c(Cl)c4)c3c2)o1 [Lapatinib] (partner 2 µM)
# Summary of the method: as §2
cell line,measurement,setting,value
UMC-11,relative viability,[1]; 0.0025 µM,1.08
same,relative viability,[1]; 0.007906 µM,1.04
same,relative viability,[1]; 0.025 µM,0.974
same,relative viability,[1]; 0.07906 µM,0.993
same,relative viability,[1]; 0.25 µM,1.18
same,relative viability,IDH-C35; 0.08 µM,1.03
same,relative viability,IDH-C35; 0.253 µM,0.975
same,relative viability,IDH-C35; 0.8 µM,0.986
same,relative viability,IDH-C35; 2.53 µM,0.951
same,relative viability,IDH-C35; 8 µM,1.02
same,relative viability,[2]; first compound 0.0025 µM,1.16
same,relative viability,[2]; first compound 0.007906 µM,1.17
same,relative viability,[2]; first compound 0.025 µM,0.997
same,relative viability,[2]; first compound 0.07906 µM,1.07
same,relative viability,[2]; first compound 0.25 µM,1.08
same,relative viability,[3]; first compound 0.0025 µM,1.12
same,relative viability,[3]; first compound 0.007906 µM,1.03
same,relative viability,[3]; first compound 0.025 µM,0.957
same,relative viability,[3]; first compound 0.07906 µM,1.01
same,relative viability,[3]; first compound 0.25 µM,1.05
